pEC50: −log10 of the molar value.
Target: T1, human M1 receptor (hCHRM1) (Homo sapiens, UniProt P11229)
T1 construct: expressed in transfected cells; host or cells: CHO-K1
T1 sequence (P11229 1-460): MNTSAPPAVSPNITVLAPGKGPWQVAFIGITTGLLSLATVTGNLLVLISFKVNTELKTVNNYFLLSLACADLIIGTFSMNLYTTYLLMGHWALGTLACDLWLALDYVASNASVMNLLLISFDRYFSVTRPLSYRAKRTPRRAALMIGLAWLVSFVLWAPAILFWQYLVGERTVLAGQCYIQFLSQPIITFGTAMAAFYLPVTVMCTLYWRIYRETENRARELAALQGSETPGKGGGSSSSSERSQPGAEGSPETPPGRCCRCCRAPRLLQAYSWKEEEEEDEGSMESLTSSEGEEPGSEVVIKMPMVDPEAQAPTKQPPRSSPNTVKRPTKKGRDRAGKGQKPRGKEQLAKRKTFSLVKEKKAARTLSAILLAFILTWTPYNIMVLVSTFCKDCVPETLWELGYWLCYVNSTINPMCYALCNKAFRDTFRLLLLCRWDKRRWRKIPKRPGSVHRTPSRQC
Test: Measurement of M1 receptor positive allosteric modulator (M1PAM) activity, calcium fluorescence (FLIPRtetra) in CHO-K1 cells in the presence of acetylcholine at EC20
Assay type: cell-based
Conditions: in the presence of acetylcholine at EC20 (final 0.6 nM), CHO-K1 cells expressing hCHRM1; for pEC50: inflection point of M1PAM activity, read-out: IP value; for activity (%) at 10 μM: test compound 10 μM
In short: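 CHO-K1 cells expressing human M1 were loaded with Fluo-4 AM, and compound was added with acetylcholine at EC20 (final 0.6 nM). Calcium fluorescence was read on FLIPRtetra for 1 min. Activity was normalized to 1 μM acetylcholine (100%) and DMSO (0%), and the curve inflection point was reported as IP.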

pEC50 | activity (%) at 10 μM [%] | SMILES
8.15 | 109 | CC(O)c1ccc(Oc2nccc3c2C(=O)N(Cc2ccc(-c4cnn(C)c4)cc2)C3)c(F)c1 (stereo not drawn) [Example 394, 4-(2-fluoro-4-(1-hydroxyethyl)phenoxy)-2-(4-(1-methyl-1H-pyrazol-4-yl)benzyl)-1,2-dihydro-3H-pyrrolo[3,4-c]pyridin-3-one]
7.19 | 96 | Cn1ccc(-c2ccc(CN3Cc4ncnc(Oc5c(F)cccc5F)c4C3=O)cc2)n1 [Example 395, 4-(2,6-difluorophenoxy)-6-(4-(1-methyl-1H-pyrazol-3-yl)benzyl)-6,7-dihydro-5H-pyrrolo[3,4-d]pyrimidin-5-one]
7.48 | 95 | Cn1cc(-c2ccc(CN3Cc4ncnc(Oc5c(F)cccc5Cl)c4C3=O)cc2)cn1 [Example 396, 4-(2-chloro-6-fluorophenoxy)-6-(4-(1-methyl-TH-pyrazol-4-yl)benzyl)-6,7-dihydro-5H-pyrrolo[3,4-d]pyrimidin-5-one]
7.60 | 95 | Cn1cc(-c2ccc(CN3Cc4ccnc(Oc5c(F)cccc5Cl)c4C3=O)cc2)cn1 [Example 397, 4-(2-chloro-6-fluorophenoxy)-2-(4-(1-methyl-1H-pyrazol-4-yl)benzyl)-1,2-dihydro-3H-pyrrolo[3,4-c]pyridin-3-one]
7.70 | 99 | Cc1cc(-c2ccc(CN3Cc4cccc(Oc5c(F)cc(C#N)cc5F)c4C3=O)cc2)cnn1 [Example 398, 3,5-difluoro-4-((2-(4-(6-methylpyridazin-4-yl)benzyl)-3-oxo-2,3-dihydro-1H-isoindol-4-yl)oxy)benzonitrile]
7.24 | 102 | Cc1nn(C)cc1-c1ccc(CN2Cc3ccnc(OC4CCC4)c3C2=O)cc1 [Example 403, 4-(cyclobutyloxy)-2-(4-(1,3-dimethyl-1H-pyrazol-4-yl)benzyl)-1,2-dihydro-3H-pyrrolo[3,4-c]pyridin-3-one]
7.28 | 87 | CCn1cc(-c2ccc(CN3Cc4ccnc(OC5CCC5)c4C3=O)cc2)cn1 [Example 404, 4-(cyclobutyloxy)-2-(4-(1-ethyl-1H-pyrazol-4-yl)benzyl)-1,2-dihydro-3H-pyrrolo[3,4-c]pyridin-3-one]
8.74 | 95 | Cn1cc(-c2ccc(CN3Cc4ccnc(Oc5ccc(CC#N)cc5F)c4C3=O)cc2)cn1 [Example 405, (3-fluoro-4-((2-(4-(1-methyl-1H-pyrazol-4-yl)benzyl)-3-oxo-2,3-dihydro-1H-pyrrolo[3,4-c]pyridin-4-yl)oxy)phenyl)acetonitrile]
7.40 | 97 | Cn1cc(-c2ccc(CN3Cc4ccnc(Oc5cc(CC#N)ccc5F)c4C3=O)cc2)cn1 [Example 406, (4-fluoro-3-((2-(4-(1-methyl-1H-pyrazol-4-yl)benzyl)-3-oxo-2,3-dihydro-1H-pyrrolo[3,4-c]pyridin-4-yl)oxy)phenyl)acetonitrile]
7.13 | 89 | Cc1cc(-c2ccc(CN3Cc4ccnc(Oc5ccc(C(F)(F)F)cc5C)c4C3=O)cc2)cnn1 [Example 407, 2-(4-(6-methylpyridazin-4-yl)benzyl)-4-(2-methyl-4-(trifluoromethyl)phenoxy)-1,2-dihydro-3H-pyrrolo[3,4-c]pyridin-3-one]
8.25 | 99 | Cn1cc(-c2ccc(CN3Cc4ccnc(Oc5ccc(C(C)(C)O)cc5F)c4C3=O)cc2)cn1 [Example 408, 4-(2-fluoro-4-(2-hydroxypropan-2-yl)phenoxy)-2-(4-(1-methyl-1H-pyrazol-4-yl)benzyl)-1,2-dihydro-3H-pyrrolo[3,4-c]pyridin-3-one]
8.47 | 96 | Cn1cc(-c2ccc(CN3Cc4ccnc(Oc5ccc(C(C)(C)C#N)cc5F)c4C3=O)cc2)cn1 [Example 409, 2-(3-fluoro-4-((2-(4-(1-methyl-1H-pyrazol-4-yl)benzyl)-3-oxo-2,3-dihydro-1H-pyrrolo[3,4-c]pyridin-4-yl)oxy)phenyl)-2-methylpropanenitrile]
7.72 | 99 | Cc1cc(-c2ccc(CN3Cc4ccnc(Oc5ccc(C(C)(C)F)cc5F)c4C3=O)cc2)cnn1 [Example 410, 4-(2-fluoro-4-(2-fluoropropan-2-yl)phenoxy)-2-(4-(6-methylpyridazin-4-yl)benzyl)-1,2-dihydro-3H-pyrrolo[3,4-c]pyridin-3-one]
7.21 | 102 | C=C(C)c1ccc(Oc2nccc3c2C(=O)N(Cc2ccc(-c4cnnc(C)c4)cc2)C3)c(F)c1 [Example 411, 4-(2-fluoro-4-(prop-1-en-2-yl)phenoxy)-2-(4-(6-methylpyridazin-4-yl)benzyl)-1,2-dihydro-3H-pyrrolo[3,4-c]pyridin-3-one]
8.10 | 101 | Cc1nn(C)cc1-c1ccc(CN2Cc3ccnc(Oc4ccc(C(C)(C)O)cc4F)c3C2=O)cc1 [Example 412, 2-(4-(1,3-dimethyl-1H-pyrazol-4-yl)benzyl)-4-(2-fluoro-4-(2-hydroxypropan-2-yl)phenoxy)-1,2-dihydro-3H-pyrrolo[3,4-c]pyridin-3-one]
8.00 | 104 | Cn1ccc(-c2ccc(CN3Cc4ccnc(Oc5ccc(C(C)(C)O)cc5F)c4C3=O)cc2)n1 [Example 413, 4-(2-fluoro-4-(2-hydroxypropan-2-yl)phenoxy)-2-(4-(1-methyl-1H-pyrazol-3-yl)benzyl)-1,2-dihydro-3H-pyrrolo[3,4-c]pyridin-3-one]
7.16 | 103 | Cc1cc(C)c(Oc2nccc3c2C(=O)N(Cc2ccc(-c4ccn(C)n4)cc2)C3)c(F)c1 [Example 414, 4-(2-fluoro-4,6-dimethylphenoxy)-2-(4-(1-methyl-1H-pyrazol-3-yl)benzyl)-1,2-dihydro-3H-pyrrolo[3,4-c]pyridin-3-one]
7.80 | 106 | Cc1cc(C)c(Oc2nccc3c2C(=O)N(Cc2ccc(-c4cnn(C)c4)cc2)C3)c(F)c1 [Example 415, 4-(2-fluoro-4,6-dimethylphenoxy)-2-(4-(1-methyl-1H-pyrazol-4-yl)benzyl)-1,2-dihydro-3H-pyrrolo[3,4-c]pyridin-3-one]
7.89 | 98 | Cn1ccc(-c2ccc(CN3Cc4ccnc(Oc5ccc(C(F)(F)F)cc5C#N)c4C3=O)cc2)n1 [Example 416, 2-((2-(4-(1-methyl-1H-pyrazol-3-yl)benzyl)-3-oxo-2,3-dihydro-1H-pyrrolo[3,4-c]pyridin-4-yl)oxy)-5-(trifluoromethyl)benzonitrile]
7.80 | 96 | Cc1cc(C#N)cc(F)c1Oc1nccc2c1C(=O)N(Cc1ccc(-c3ccn(C)n3)cc1)C2 [Example 417, 3-fluoro-5-methyl-4-((2-(4-(1-methyl-1H-pyrazol-3-yl)benzyl)-3-oxo-2,3-dihydro-1H-pyrrolo[3,4-c]pyridin-4-yl)oxy)benzonitrile]
8.04 | 95 | Cc1cn(-c2ccc(CN3Cc4ccnc(Oc5ccc(C(F)(F)F)cc5F)c4C3=O)cc2)cn1 [Example 418, 4-(2-fluoro-4-(trifluoromethyl)phenoxy)-2-(4-(4-methyl-1H-imidazol-1-yl)benzyl)-1,2-dihydro-3H-pyrrolo[3,4-c]pyridin-3-one]

From patent US9777005B2 (Takeda Pharmaceutical Company Limited, priority 2012, dated 2017)
